Earlier results in patent publication US20210106592A1, “METHODS AND COMPOSITIONS FOR THE TREATMENT OF TRAUMATIC BRAIN INJURY (TBI) AND RELATED DISORDERS” (priority 2017, published 2021).

Columns and labels:
[1] = target: serotonin (5-HT) reuptake (Homo sapiens, UniProt P31645)
[2] = tested on: cholinergic receptors; details: in vitro; last in the decreasing order H1, H2 > 5-HT2 > D2, D1 > a1 > cholinergic
[3] = tested on: generalized anxiety disorders; details: patients with generalized anxiety disorders; versus placebo and alprazolam
[4] = tested on: sigma; details: recent basic research
[5] = target: noradrenaline reuptake (Homo sapiens, UniProt P23975)
Chain of noradrenaline reuptake (P23975 whole entry): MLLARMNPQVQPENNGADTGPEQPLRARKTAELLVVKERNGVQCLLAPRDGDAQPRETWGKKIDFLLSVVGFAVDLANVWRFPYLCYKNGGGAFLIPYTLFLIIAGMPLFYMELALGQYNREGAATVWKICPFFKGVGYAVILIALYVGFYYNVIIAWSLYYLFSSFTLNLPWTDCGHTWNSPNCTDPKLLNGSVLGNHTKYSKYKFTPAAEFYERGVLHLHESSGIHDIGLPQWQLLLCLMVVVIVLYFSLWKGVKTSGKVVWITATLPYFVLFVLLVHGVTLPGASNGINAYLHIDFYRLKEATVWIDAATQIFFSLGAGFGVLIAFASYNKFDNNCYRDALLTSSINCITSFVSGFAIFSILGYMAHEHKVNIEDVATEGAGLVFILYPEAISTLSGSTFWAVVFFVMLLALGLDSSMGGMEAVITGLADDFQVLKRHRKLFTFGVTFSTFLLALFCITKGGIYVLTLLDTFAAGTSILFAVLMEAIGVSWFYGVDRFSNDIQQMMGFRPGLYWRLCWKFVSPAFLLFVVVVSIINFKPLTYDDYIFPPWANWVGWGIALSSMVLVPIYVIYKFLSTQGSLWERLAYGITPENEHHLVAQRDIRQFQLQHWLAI

Chain of serotonin (5-HT) reuptake (P31645 whole entry): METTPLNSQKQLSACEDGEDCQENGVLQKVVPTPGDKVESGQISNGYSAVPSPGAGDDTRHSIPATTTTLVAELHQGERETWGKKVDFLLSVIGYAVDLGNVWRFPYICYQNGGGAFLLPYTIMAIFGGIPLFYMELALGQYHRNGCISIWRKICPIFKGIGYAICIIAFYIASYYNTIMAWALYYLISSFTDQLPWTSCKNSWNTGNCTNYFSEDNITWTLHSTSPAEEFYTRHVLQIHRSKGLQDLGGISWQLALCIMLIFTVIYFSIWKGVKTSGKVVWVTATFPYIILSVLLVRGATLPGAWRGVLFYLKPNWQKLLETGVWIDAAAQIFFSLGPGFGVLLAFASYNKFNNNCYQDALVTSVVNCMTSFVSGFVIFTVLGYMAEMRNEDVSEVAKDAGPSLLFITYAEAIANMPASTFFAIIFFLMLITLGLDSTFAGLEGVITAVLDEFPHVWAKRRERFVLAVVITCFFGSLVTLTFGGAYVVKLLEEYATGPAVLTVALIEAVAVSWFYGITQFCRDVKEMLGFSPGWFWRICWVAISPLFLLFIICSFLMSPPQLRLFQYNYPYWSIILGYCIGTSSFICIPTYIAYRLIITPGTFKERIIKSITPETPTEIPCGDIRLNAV

Compound: Cl.Cl.OCCN1CCN(CCCN2c3ccccc3C=Cc3ccccc32)CC1 [opipramol, 4-[3-(5H-dibenz[b,f]-azepine-5-yl)-propyl]-1-piperazine-ethanol dihydrochloride]
- reuptake inhibiting properties for serotonin (5-HT) [1]: without reuptake inhibiting properties
- blockade of cholinergic receptors [2]: very weakly
- anxiolytic efficacy [3]: superiority over placebo and similar efficacy to alprazolam
- sigma ligand strength [4]: strong sigma ligand
- reuptake inhibiting properties for noradrenaline [5]: without reuptake inhibiting properties
